Source: ChEMBL document CHEMBL3797052 (Eur J Med Chem, 2016)

Test system: not listed separately
Assay: Antiproliferative activity against human RPMI8226 cells assessed as growth inhibition after 48 hrs by sulforhodamine B assay
Format: functional
Details: RPMI-8226, 48 h
In the case of CNC(=O)c1cc(Oc2ccc3nc(NC(=O)c4cc(C(F)(F)F)cc(C(F)(F)F)c4)sc3c2)ccn1, the TGI is reported as greater than 100 µM.

Test system: NCI-H522
Assay: Antiproliferative activity against human NCI-H522 cells assessed as cell growth at 10^-4 M after 48 hrs by sulforhodamine B assay
Format: functional
Details: NCI-H522, 48 h, read-out: Activity
Work on CNC(=O)c1cc(Oc2ccc3nc(NC(=O)c4cc(C(F)(F)F)cc(C(F)(F)F)c4)sc3c2)ccn1 yielded a growth at 100 µM of -61%.

Test system: not listed separately
Assay: Antiproliferative activity against human DU145 cells assessed as cell growth at 10^-8 M after 48 hrs by sulforhodamine B assay
Format: functional
Details: DU-145, 48 h, read-out: Activity
CNC(=O)c1cc(Oc2ccc3nc(NC(=O)c4cc(C(F)(F)F)cc(C(F)(F)F)c4)sc3c2)ccn1 gave a growth at 0.01 µM of 105%.

Test system: not listed separately
Assay: Antiproliferative activity against human PC3 cells assessed as growth inhibition after 48 hrs by sulforhodamine B assay
Format: functional
Details: PC-3, 48 h
In the case of CNC(=O)c1cc(Oc2ccc3nc(NC(=O)c4cc(C(F)(F)F)cc(C(F)(F)F)c4)sc3c2)ccn1, the GI50 is reported as 2.53 µM, the LC50 is reported as greater than 100 µM and the TGI is reported as 12.8 µM.

Test system: not listed separately
Assay: Antiproliferative activity against human HL-60(TB) cells assessed as cell growth at 10^-8 M after 48 hrs by sulforhodamine B assay
Format: functional
Details: HL-60, 48 h, read-out: Activity
In the case of CNC(=O)c1cc(Oc2ccc3nc(NC(=O)c4cc(C(F)(F)F)cc(C(F)(F)F)c4)sc3c2)ccn1, the growth at 0.01 µM is reported as 92%.

Test system: not listed separately
Assay: Antiproliferative activity against human HOP92 cells assessed as growth inhibition after 48 hrs by sulforhodamine B assay
Format: functional
Details: HOP-92, 48 h
CNC(=O)c1cc(Oc2ccc3nc(NC(=O)c4cc(C(F)(F)F)cc(C(F)(F)F)c4)sc3c2)ccn1 showed a GI50 of 1.68 µM, an LC50 greater than 100 µM and a TGI of 7.21 µM.

Test system: CCRF-CEM
Assay: Antiproliferative activity against human CCRF-CEM cells assessed as cell growth at 10^-4 M after 48 hrs by sulforhodamine B assay
Format: functional
Details: read-out: Activity
With CNC(=O)c1cc(Oc2ccc3nc(NC(=O)c4cc(C(F)(F)F)cc(C(F)(F)F)c4)sc3c2)ccn1 the growth at 100 µM was 25%.

Test system: not listed separately
Assay: Antiproliferative activity against human NCI-ADR-RES cells assessed as growth inhibition after 48 hrs by sulforhodamine B assay
Format: functional
Details: not given
For CNC(=O)c1cc(Oc2ccc3nc(NC(=O)c4cc(C(F)(F)F)cc(C(F)(F)F)c4)sc3c2)ccn1, the GI50 was 3.67 µM, the LC50 (concentration killing 50% of cells) was greater than 100 µM and the TGI was 19.1 µM.

Test system: Malme-3M
Assay: Antiproliferative activity against human MALME-3M cells assessed as cell growth at 10^-4 M after 48 hrs by sulforhodamine B assay
Format: functional
Details: read-out: Activity
CNC(=O)c1cc(Oc2ccc3nc(NC(=O)c4cc(C(F)(F)F)cc(C(F)(F)F)c4)sc3c2)ccn1 gave a growth at 100 µM of -38%.

Test system: not listed separately
Assay: Antiproliferative activity against human LOXIMVI cells assessed as cell growth at 10^-7 M after 48 hrs by sulforhodamine B assay
Format: functional
Details: LOX IMVI, read-out: Activity
Compound CNC(=O)c1cc(Oc2ccc3nc(NC(=O)c4cc(C(F)(F)F)cc(C(F)(F)F)c4)sc3c2)ccn1 has a growth at 0.1 µM of 96%.

Test system: K562
Assay: Antiproliferative activity against human K562 cells assessed as cell growth at 10^-4 M after 48 hrs by sulforhodamine B assay
Format: functional
Details: K562, 48 h, read-out: Activity
CNC(=O)c1cc(Oc2ccc3nc(NC(=O)c4cc(C(F)(F)F)cc(C(F)(F)F)c4)sc3c2)ccn1 gave a growth at 100 µM of 4%.

Test system: KM12
Assay: Antiproliferative activity against human KM12 cells assessed as cell growth at 10^-8 M after 48 hrs by sulforhodamine B assay
Format: functional
Details: KM12, 48 h, read-out: Activity
Compound CNC(=O)c1cc(Oc2ccc3nc(NC(=O)c4cc(C(F)(F)F)cc(C(F)(F)F)c4)sc3c2)ccn1 has a growth at 0.01 µM of 101%.

Test system: not listed separately
Assay: Antiproliferative activity against human TK10 cells assessed as cell growth at 10^-4 M after 48 hrs by sulforhodamine B assay
Format: functional
Details: TK-10, 48 h, read-out: Activity
CNC(=O)c1cc(Oc2ccc3nc(NC(=O)c4cc(C(F)(F)F)cc(C(F)(F)F)c4)sc3c2)ccn1 gave a growth at 100 µM of -58%.

Test system: A549
Assay: Antiproliferative activity against human A549/ATCC cells assessed as growth inhibition after 48 hrs by sulforhodamine B assay
Format: functional
Details: A549, 48 h
CNC(=O)c1cc(Oc2ccc3nc(NC(=O)c4cc(C(F)(F)F)cc(C(F)(F)F)c4)sc3c2)ccn1 showed a GI50 of 3.99 µM and a TGI of 14.6 µM.

Same assay, conditions: A549, 48 h, read-out: LC50 (the source's name)
CNC(=O)c1cc(Oc2ccc3nc(NC(=O)c4cc(C(F)(F)F)cc(C(F)(F)F)c4)sc3c2)ccn1 gave a CC50 of 61.2 µM.

Test system: ACHN
Assay: Antiproliferative activity against human ACHN cells assessed as cell growth at 10^-8 M after 48 hrs by sulforhodamine B assay
Format: functional
Details: read-out: Activity
In the case of CNC(=O)c1cc(Oc2ccc3nc(NC(=O)c4cc(C(F)(F)F)cc(C(F)(F)F)c4)sc3c2)ccn1, the growth at 0.01 µM is reported as 104%.

Test system: A549
Assay: Antiproliferative activity against human A549/ATCC cells assessed as cell growth at […] after 48 hrs by sulforhodamine B assay
Format: functional
Details: A549, 48 h, read-out: Activity
CNC(=O)c1cc(Oc2ccc3nc(NC(=O)c4cc(C(F)(F)F)cc(C(F)(F)F)c4)sc3c2)ccn1 gave a growth at 0.1 µM of 101%.

Test system: SR
Assay: Antiproliferative activity against human SR cells assessed as cell growth at 10^-6 M after 48 hrs by sulforhodamine B assay
Format: functional
Details: read-out: Activity
In the case of CNC(=O)c1cc(Oc2ccc3nc(NC(=O)c4cc(C(F)(F)F)cc(C(F)(F)F)c4)sc3c2)ccn1, the growth at 1 µM is reported as 100%.
